Results as given in PMC5751249, “Anti-Diabetic Effect of Organo-Chalcogen (Sulfur and Selenium) Zinc Complexes with Hydroxy-Pyrone Derivatives on Leptin-Deficient Type 2 Diabetes Model ob/ob Mice” (International Journal of Molecular Sciences, 2017).

Tests used:
[1] = system: Isolated male Wistar rat epididymal adipocytes; assay: Glucose uptake into adipocytes (in vitro insulin-mimetic activity); format: cell-based; details: 20 μM Zn complex, means ± SDs, three runs
Protocol: The in vitro insulin-mimetic activities of Zn complexes were determined by the inhibition of FFA release from adipocytes and increase of glucose uptake into adipocytes. Isolated male Wistar rat epididymal adipocytes (1.0 × 10^6 cells/mL) were prepared and pre-incubated separately with various concentrations of the different Zn complexes in 5 mM glucose in Krebs-Ringer bicarbonate buffer (120 mM NaCl, 1.3 mM CaCl2, 1.2 mM MgSO4, 4.8 mM KCl, 1.2 mM KH2PO4, 24 mM NaHCO3, pH 7.4) containing 2% BSA, with shaking at 100 cycles/min for 30 min at 37 °C. Adrenaline (15 μL, 0.2 mM) was then added to the mixtures, and the resultant solutions were then incubated for 3 h at 37 °C. The reaction mixture was subsequently centrifuged at 650× g for 10 min at 4 °C. FFA levels in the extracellular solutions were determined using an FFA measuring kit (NEFA C-test Wako) and the IC50 value, which is the 50% inhibitory concentration of FFA-release in each complex, was calculated. Glucose concentrations in the solutions with 20 μM Zn complexes were determined using a Fuji Dry Chem system (Fuji Medical Co., Tokyo, Japan) and then the glucose uptake quantities/(1.0 × 10^6 cells) in the 20 μM Zn complexes were calculated.

[2] = system: type 2 diabetic ob/ob mice; assay: Daily oral treatment of ob/ob mice for 28 days: blood glucose, body weight, water intake; format: in vivo
Protocol: The anti-diabetic effects of both [Zn(hmpt)2] and [Zn(hmps)2] were examined in ob/ob mice. The ob/ob and +/+ mice were used as type 2 diabetic and normal (non-diabetic) mice, respectively. The ob/ob (10-week-old) and +/+ (10-week-old) mice received daily oral treatment of either Zn complexes dissolved in PEG-400 or PEG-400 only, respectively. The mice received oral treatments of [Zn(hmpt)2] or [Zn(hmps)2] at doses of 2.5–10 mg Zn/kg or 1.0–5.0 mg Zn/kg for 28 days, respectively. Blood glucose levels (BGL) were measured using a Glucocard (Arkray, Kyoto, Japan) just before treatment with the Zn complexes, and the doses were regulated based on the BGL. Over 28 days, BGL, body weight, food intake, and water intake were measured every day. The number of normal mice (+/+ mice), control mice (ob/ob mice), [Zn(hmpt)2]-treated, and [Zn(hmps)2]-treated mice was 6, 8, 8, and 8 in the initial animal experiments, respectively. This was modified to 6, 6, 7, and 8 after the end of experiments as two control mice died naturally by the end of experiments, and one [Zn(hmpt)2]-treated mouse died from an accident during the oral glucose tolerance test.

[3] = system: type 2 diabetic ob/ob mice; assay: Oral glucose tolerance test (OGTT) after 28 days treatment; format: in vivo
Protocol: After treatment with [Zn(hmpt)2] or [Zn(hmps)2] for 28 days, OGTTs were performed. The ob/ob mice and +/+ mice were fasted for 12-h and glucose (1 g/kg body weight) was given orally. Blood samples were obtained from the tail vein at 0, 15, 30, 45, 60, 90, and 120 min after glucose administration. Blood glucose concentrations were measured using a Glucocard.

[4] = system: type 2 diabetic ob/ob mice; format: in vivo
Protocol: (§1) After OGTT, HbA1c levels were measured in blood obtained from the mouse tail vein using an immunoassay with a DCA 2000 analyzer (Bayer-Sankyo Co., Ltd., Tokyo, Japan). The mice were subjected to a 12-h fast and blood samples were collected from the orbital vein or postcaval vein under isoflurane anesthesia using heparinized tools. Collected samples were then centrifuged at 650× g for 10 min at 4 °C, and the resultant plasma samples were used to analyze various biochemical parameters. The levels of AST, ALT, BUN, TG, T-CHO, and ALP in plasma samples were determined using a Fuji Dry Chem system. The plasma levels of insulin and adiponectin were determined using an ultra-sensitive Mouse Insulin ELISA Kit (Morinaga Institute of Biological Science, Inc., Kanagawa, Japan) and an adiponectin immunoassay kit (R&D Systems Inc., Minneapolis, MN, USA), respectively. After collecting the blood samples, mice were subjected to dissection under isoflurane anesthesia, and the resultant tissue samples were washed in saline. Each of the samples was dehydrated for a week in desiccators, weighed, and then heated in 5% HNO3 (5 mL) for 5 h at 110 °C in a closed system. The resultant solution was centrifuged at 1250× g for 15 min, and the supernatant was diluted using 5% HNO3. Both Zn and Se concentrations in organs were determined with an ICP-MS Agilent 7700x/Mass Hunter instrument (Agilent Technologies Inc., Santa Clara, CA, USA). The Zn and Se concentrations in each sample were calculated using linear regression of the standard curves prepared from standard solutions of the respective trace elements.

[5] = Organ distribution of Zn and Se by ICP-MS after 28 days oral treatment; format: in vivo, mice
Protocol: as §1

[6] = system: type 2 diabetic ob/ob mice; assay: Histopathology and morphometric analysis of pancreas and liver (HE staining); format: in vivo; details: 14-week-old mice
Protocol: Excised pancreas and liver from 14-week-old mice were immediately fixed in 10% buffered formalin for a week, sectioned at a thickness of 3 μm, and stained with HE for histopathological examination. HE-stained tissue sections were scanned using a Moticam T2 (Shimadzu Co., Kyoto, Japan) to prepare digital images. Both pancreatic islet area and glycogen and fat deposition areas were calculated with the dedicated image processing software WinROOF (Mitani Corp., Tokyo, Japan).

[7] = system: type 2 diabetic ob/ob mice; assay: Triglyceride and glycogen contents in the liver; format: in vivo; details: ob/ob mice after 28 days oral treatment
Protocol: Lipids in the liver were extracted according to modified Folch method. TG in the extracted lipids was detected using the triglyceride E test wako (Wako Pure Chemicals Co., Osaka, Japan). Glycogen in the liver was extracted with a strong base (30% KOH aq). Then, ethanol precipitation methods (using 95% ethanol and saturated Na2SO4), hydrolysis, and neutralization (with 2.4 M HCl aq and 0.8 M NaOH aq) of the glycogen extracts were performed, resulting in degradation to glucose solution. To detect the glucose levels in the solution using the glucose CII test wako (Wako Pure Chemicals Co., Osaka, Japan), glycogen levels in the liver were estimated. Because the liver sample of normal mice was used up during TG detection and ICP-MS analysis, glycogen content in the liver could not be detected.

male Wistar rats = system: male Wistar rats; design: method as in earlier work; details: in food 10 µg sodium selenite/kg/day (4.6 µg Se/kg/day), 3 months; cited from earlier work

Cc1occc(=S)c1[O-].Cc1occc(=S)c1[O-].[Zn+2] [[Zn(hmpt)2], bis(3-hydroxy-2-methyl-4(H)-pyran-4-thiono)Zn]
Glucose Uptake [1]: 79 ± 26 µg/10^6 Cells | Blood glucose level by the end of treatment ([2]; [Zn(hmpt)2] 2.5–10 mg Zn/kg, [Zn(hmps)2] 1.0–5.0 mg Zn/kg): approximately 200 mg/dL | Water intake on the final day ([2]; control 12.6 ± 1.6 g, p < 0.01 vs. control): 7.5 ± 2.5 g | Body weight change during treatment ([2]; loss seen day 22 to 25, recovered after dose reduction): body weight loss | Area under the blood glucose concentration-time curve (AUC) in OGTT ([3]; 1 g glucose/kg oral, after 28 days treatment, compared with control mice): significantly decreased | Fasting blood glucose level (0 min of OGTT) ([3]; ob/ob mice after 28 days oral treatment, 12-h fast, control 237 ± 52 mg/dL): 143 ± 75 mg/dL | ALP (plasma) ([4]; mouse, in vivo, po): 360 ± 88 U/L | ALT (plasma) ([4]; mouse, in vivo, po): 118 ± 68 U/L | AST (plasma) ([4]; mouse, in vivo, po): 103 ± 25 U/L | BUN (plasma) ([4]; mouse, in vivo, po): 23 ± 2 **^,## mg/dL | Insulin (fasting plasma) ([4]; ob/ob mice after 28 days oral treatment, control 2.2 ± 1.0): 0.9 ± 0.3 ng/mL | HbA1c ([4]; ob/ob mice after 28 days oral treatment, control 7.9 ± 0.8): 6.5 ± 0.7 **^,## % | Adiponectin (plasma) ([4]; ob/ob mice after 28 days oral treatment, control 8.2 ± 1.1): 9.4 ± 0.8 µg/mL | TG (plasma) ([4]; ob/ob mice after 28 days oral treatment, control 83 ± 16): 76 ± 25 mg/dL | T-CHO (plasma) ([4]; ob/ob mice after 28 days oral treatment, control 195 ± 16): 189 ± 42 mg/dL | Se concentration, kidney ([5]; dry tissue, ob/ob mice after 28 days oral treatment, control 6.4 ± 0.2): 5.8 ± 0.5 µg/g | Zn concentration, kidney ([5]; dry tissue, ob/ob mice after 28 days oral treatment, control 67 ± 3): 73 ± 4 µg/g | Δ[Zn], bone ([5]; mouse, in vivo, po): 517 nmol/g | Δ[Zn], kidney ([5]; mouse, in vivo, po): 86 nmol/g | Δ[Zn], liver ([5]; mouse, in vivo, po): 453 nmol/g | Δ[Zn], pancreas ([5]; mouse, in vivo, po): 302 nmol/g | Δ[Zn], plasma ([5]; mouse, in vivo, po): 3 nmol/g | Pancreatic islet numbers per section ([6]; among normal, control and treated mice): not significantly changed | Glycogen and fat deposition area ratio in the liver ([6]; between control and treated mice): no significant differences | Pancreatic islet area ratio and size ([6]; compared with normal mice): significantly increased | Glycogen content in the liver ([7]; control 0.08 ± 0.04): 0.03 ± 0.01 mg/g liver | TG content in the liver ([7]; control 437 ± 139): 309 ± 134 mg/g liver

O=[Se]([O-])[O-].[Na+].[Na+] [sodium selenite]
Hepatic histology finding (male Wistar rats): necrotic areas in hepatic sections were observed
